Measurements reported in PubChem BioAssay AID330 (DTP/NCI, 2004).
Where “and” joins values, the source holds several entries; their conditions need not be identical. Equal values may be shown once. Inconclusive results and toxic doses are left out.

Tested on: P388 leukemia ip, CD2F1 mice, survival T/C
Experiment: NCI In Vivo Anticancer Drug Screen. Data for tumor model P388 Leukemia (intraperitoneal) in CD2F1 (CDF1) mice
Settings: endpoint: median survival time, higher = longer survival
In short: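 Mice carrying the transplanted tumor received test compound or vehicle. Survival was recorded in each group, and the value is the treated-group measurement divided by that of the vehicle-treated control group.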

[1] = dose: 50.0 mg/kg/injection, schedule: Q01DX005 (ip), vehicle: Klucel (hydroxypropylcellulose) (HPC)
[2] = dose: 100.0 mg/kg/injection, schedule: Q01DX005 (ip), vehicle: Klucel (hydroxypropylcellulose) (HPC)
[3] = dose: 50.0 mg/kg/injection, schedule: Q01DX005 (ip), vehicle: saline with Tween-80
[4] = dose: 100.0 mg/kg/injection, schedule: Q01DX009 (ip), vehicle: saline with Tween-80
[5] = dose: 200.0 mg/kg/injection, schedule: Q01DX009 (ip), vehicle: saline with Tween-80
[6] = dose: 6.25 mg/kg/injection, schedule: Q01DX009 (ip), vehicle: Klucel (hydroxypropylcellulose) (HPC)
[7] = dose: 100.0 mg/kg/injection, schedule: Q01DX005 (ip), vehicle: saline with Tween-80
[8] = dose: 200.0 mg/kg/injection, schedule: Q01DX005 (ip), vehicle: saline with Tween-80
[9] = dose: 50.0 mg/kg/injection, schedule: Q01DX009 (ip), vehicle: saline with Tween-80
[10] = dose: 100.0 mg/kg/injection, schedule: Q01DX009 (ip), vehicle: saline
[11] = dose: 200.0 mg/kg/injection, schedule: Q01DX009 (ip), vehicle: saline
[12] = dose: 400.0 mg/kg/injection, schedule: Q01DX009 (ip), vehicle: saline
[13] = dose: 60.0 mg/kg/injection, schedule: Q01DX005 (ip), vehicle: saline with Tween-80
[14] = dose: 120.0 mg/kg/injection, schedule: Q01DX005 (ip), vehicle: saline with Tween-80
[15] = dose: 240.0 mg/kg/injection, schedule: Q01DX005 (ip), vehicle: saline with Tween-80
[16] = dose: 100.0 mg/kg/injection, schedule: Q04DX003 (ip), vehicle: saline with Tween-80
[17] = dose: 200.0 mg/kg/injection, schedule: Q04DX003 (ip), vehicle: saline with Tween-80

Cc1cc(=O)[nH]c2cc(O)ccc12
T/C (dose: 25.0 mg/kg/injection, schedule: Q01DX005 (ip), vehicle: Klucel (hydroxypropylcellulose) (HPC)): 100 % of control
T/C [1]: 93 % of control
T/C [2]: 98 % of control

COc1ccc2c(Br)c(NC(C)=O)ccc2c1Br
T/C (dose: 25.0 mg/kg/injection, schedule: Q04DX003 (ip), vehicle: saline): 100 % of control
T/C (dose: 50.0 mg/kg/injection, schedule: Q04DX003 (ip), vehicle: saline): 96 % of control
T/C (dose: 100.0 mg/kg/injection, schedule: Q04DX003 (ip), vehicle: saline): 98 % of control and 96 % of control
T/C (dose: 400.0 mg/kg/injection, schedule: Q04DX003 (ip), vehicle: saline): 95 % of control

CCNC(=O)C(C)O (stereo not given)
T/C (dose: 50.0 mg/kg/injection, schedule: Q01DX005 (ip), vehicle: saline): 102 % of control
T/C (dose: 100.0 mg/kg/injection, schedule: Q01DX005 (ip), vehicle: saline): 102 % of control
T/C (dose: 200.0 mg/kg/injection, schedule: Q01DX005 (ip), vehicle: saline): 98 % of control

CC1(C)OCC2OCOC(C3CC(=O)NC(=O)C3)C2O1 (stereo not given)
T/C (dose: 100.0 mg/kg/injection, schedule: Q04DX002 (ip), vehicle: suspension in saline): 102 % of control
T/C (dose: 200.0 mg/kg/injection, schedule: Q04DX002 (ip), vehicle: suspension in saline): 100 % of control
T/C (dose: 400.0 mg/kg/injection, schedule: Q04DX002 (ip), vehicle: suspension in saline): 102 % of control

COc1ccc2[nH]c(=O)c(C#N)c(C)c2c1
T/C (dose: 12.5 mg/kg/injection, schedule: Q01DX005 (ip), vehicle: saline with Tween-80): 95 % of control
T/C (dose: 25.0 mg/kg/injection, schedule: Q01DX005 (ip), vehicle: saline with Tween-80): 91 % of control
T/C [3]: 104 % of control and 91 % of control

CC([NH-])CC(C)[NH-].[Cl][Pt+2][Cl] (stereo not given)
T/C (dose: 0.78 mg/kg/injection, schedule: Q04DX002 (ip), vehicle: saline with Tween-80): 119 % of control

Nc1nnc(SCCCCCCCCCCSc2nnc(N)s2)s1
T/C [1]: 95 % of control
T/C [2]: 91 % of control
T/C (dose: 200.0 mg/kg/injection, schedule: Q01DX005 (ip), vehicle: Klucel (hydroxypropylcellulose) (HPC)): 89 % of control

Cc1[nH]c(C)c2ccc(=O)ccc12
T/C (dose: 30.0 mg/kg/injection, schedule: Q01DX005 (ip), vehicle: suspension in saline): 101 % of control
T/C (dose: 60.0 mg/kg/injection, schedule: Q01DX005 (ip), vehicle: suspension in saline): 94 % of control and 97 % of control
T/C (dose: 120.0 mg/kg/injection, schedule: Q01DX005 (ip), vehicle: suspension in saline): 88 % of control
T/C (dose: 240.0 mg/kg/injection, schedule: Q01DX005 (ip), vehicle: suspension in saline): 93 % of control

CC/S(=N\S(=O)(=O)c1ccc(C)cc1)c1ccccc1 (stereo not given)
T/C [4]: 100 % of control
T/C [5]: 109 % of control
T/C (dose: 400.0 mg/kg/injection, schedule: Q01DX009 (ip), vehicle: saline with Tween-80): 100 % of control

NC(CS)=NCC1C2CC3CC(C2)CC1C3 (stereo not given)
T/C (dose: 0.78 mg/kg/injection, schedule: Q01DX009 (ip), vehicle: Klucel (hydroxypropylcellulose) (HPC)): 100 % of control
T/C (dose: 1.56 mg/kg/injection, schedule: Q01DX009 (ip), vehicle: Klucel (hydroxypropylcellulose) (HPC)): 100 % of control
T/C (dose: 3.12 mg/kg/injection, schedule: Q01DX009 (ip), vehicle: Klucel (hydroxypropylcellulose) (HPC)): 100 % of control and 91 % of control
T/C [6]: 104 % of control

COC(=O)C(OC)C(O)C(OC)OC (stereo not given)
T/C [3]: 100 % of control
T/C [7]: 101 % of control
T/C [8]: 104 % of control

O=C(NCc1ccccc1)C1C(=O)C(=O)N(Cc2ccccc2)C1=O (stereo not given)
T/C (dose: 50.0 mg/kg/injection, schedule: Q01DX009 (ip), vehicle: Klucel (hydroxypropylcellulose) (HPC)): 105 % of control
T/C (dose: 100.0 mg/kg/injection, schedule: Q01DX009 (ip), vehicle: Klucel (hydroxypropylcellulose) (HPC)): 100 % of control
T/C (dose: 200.0 mg/kg/injection, schedule: Q01DX009 (ip), vehicle: Klucel (hydroxypropylcellulose) (HPC)): 107 % of control

O=C1CC2(C(=O)O1)C1C(=O)OC(=O)C1C1c3ccccc3C=NN12 (stereo not given)
T/C [9]: 98 % of control
T/C [4]: 93 % of control
T/C [5]: 100 % of control

O=C(NCc1ccccc1)c1cccnc1
T/C [10]: 100 % of control
T/C [11]: 98 % of control
T/C [12]: 100 % of control

Nc1ccc(NCCCC2CCCN3CCCCC23)c2c(=O)c3ccccc3sc12 (stereo not given)
T/C (dose: 13.5 mg/kg/injection, schedule: Q01DX005 (ip), vehicle: saline with Tween-80): 104 % of control
T/C (dose: 27.0 mg/kg/injection, schedule: Q01DX005 (ip), vehicle: saline with Tween-80): 91 % of control
T/C (dose: 54.0 mg/kg/injection, schedule: Q01DX005 (ip), vehicle: saline with Tween-80): 101 % of control
T/C [7]: 110 % of control
T/C (dose: 108.0 mg/kg/injection, schedule: Q01DX005 (ip), vehicle: saline with Tween-80): 107 % of control
T/C [8]: 120 % of control

CCN(CC)c1cccc(OC(=O)Nc2cccc(Cl)c2Cl)c1
T/C [13]: 100 % of control
T/C [14]: 100 % of control
T/C [15]: 92 % of control

O=C(C(=S)c1ccccc1)N(Cc1ccccc1)Cc1ccccc1
T/C [16]: 108 % of control
T/C [17]: 103 % of control
T/C (dose: 400.0 mg/kg/injection, schedule: Q04DX003 (ip), vehicle: saline with Tween-80): 103 % of control

O=NNc1ccc(S(=O)(=O)c2ccc3ccccc3c2)cn1
T/C (dose: 3.12 mg/kg/injection, schedule: Q01DX009 (ip), vehicle: water): 120 % of control
T/C (dose: 6.25 mg/kg/injection, schedule: Q01DX009 (ip), vehicle: water): 115 % of control
T/C (dose: 12.5 mg/kg/injection, schedule: Q01DX009 (ip), vehicle: water): 116 % of control
T/C (dose: 25.0 mg/kg/injection, schedule: Q01DX009 (ip), vehicle: water): 109 % of control

CC(C)(C)C(=O)Oc1ccc[nH]c1=O
T/C (dose: 25.0 mg/kg/injection, schedule: Q01DX009 (ip), vehicle: saline): 100 % of control and 110 % of control
T/C (dose: 50.0 mg/kg/injection, schedule: Q01DX009 (ip), vehicle: saline): 106 % of control and 116 % of control
T/C [10]: 100 % of control and 116 % of control
T/C [11]: 121 % of control and 94 % of control
T/C [12]: 106 % of control and 109 % of control

Cc1ccc(NC(=O)N(C)N=O)cc1
T/C [9]: 95 % of control
T/C (dose: 50.0 mg/kg/injection, schedule: Q04DX003 (ip), vehicle: saline with Tween-80): 100 % of control
T/C [4]: 90 % of control
T/C [16]: 100 % of control
T/C [5]: 90 % of control
T/C [17]: 100 % of control

O=C(NC(CC1CCC2OCOC2C1)C(=O)O)c1ccccc1 (stereo not given)
T/C [13]: 111 % of control
T/C [14]: 102 % of control
T/C [15]: 105 % of control

CN(C)c1cccc2c(S(=O)(=O)NCCCCCCCCCCCCNS(=O)(=O)c3cccc4c(N(C)C)cccc34)cccc12
T/C (dose: 15.0 mg/kg/injection, schedule: Q01DX005 (ip), vehicle: saline with Tween-80): 96 % of control
T/C (dose: 30.0 mg/kg/injection, schedule: Q01DX005 (ip), vehicle: saline with Tween-80): 92 % of control
T/C [13]: 87 % of control
T/C [15]: 88 % of control

C=C1C(=O)OC2/C=C(\C)CC/C=C(/C=O)C(OC)C(OC(=O)C(C)C)C12 (stereo not given)
T/C [6]: 106 % of control
T/C (dose: 12.5 mg/kg/injection, schedule: Q01DX009 (ip), vehicle: Klucel (hydroxypropylcellulose) (HPC)): 97 % of control
T/C (dose: 25.0 mg/kg/injection, schedule: Q01DX009 (ip), vehicle: Klucel (hydroxypropylcellulose) (HPC)): 100 % of control

[Se]=P(N1CC1)(N1CC1)N1CC1
T/C (dose: 13.75 mg/kg/injection, schedule: Q01DX001 (ip), vehicle: Klucel (hydroxypropylcellulose) (HPC)): 119 % of control
T/C (dose: 27.5 mg/kg/injection, schedule: Q01DX001 (ip), vehicle: Klucel (hydroxypropylcellulose) (HPC)): 155 % of control

CSc1nc(N)c(NS(=O)(=O)c2cccc(N)c2)c(=O)[nH]1
T/C [13]: 100 % of control
T/C [14]: 99 % of control
T/C [15]: 99 % of control
